# Test results reported in patent US12497394B2, “Fused-cyclic pyrazolone formamide compound and preparation method therefor, pharmaceutical composition and use thereof” (SHANGHAI INSTITUTE OF MATERIA MEDICA, CHINESE ACADEMY OF …, priority 2018, dated 2025).
# Values joined by “and” are separate entries in the source; they are usually repeats but may differ in a detail not shown here. Identical values can stand only once.
# Columns and labels:
# [1] = target: T1, receptor tyrosine kinase AXL (Homo sapiens, UniProt P30530); assay: Enzyme activity of receptor tyrosine kinase AXL (ELISA); type: biochemical; settings: for inhibition at 0.01 µM: 10 nM; for inhibition at 0.01 µM / inhibition at 0.1 µM / inhibition at 1 µM / inhibition at 0.001 µM: read-out: AXL activity Inhibitory rate(%); for inhibition at 0.1 µM: 100 nM; for inhibition at 1 µM: 1000 nM; for AXL activity (in words): at 1000, 100, and 10 nM; for inhibition at 0.001 µM: 1 nM
# T1 construct: 50 μL of AXL kinase domain recombinant protein diluted in reaction buffer was added to start the reaction; made in house; host or cells: insect cells (baculovirus expression system)
# T1 sequence (P30530 536-807 limits assumed): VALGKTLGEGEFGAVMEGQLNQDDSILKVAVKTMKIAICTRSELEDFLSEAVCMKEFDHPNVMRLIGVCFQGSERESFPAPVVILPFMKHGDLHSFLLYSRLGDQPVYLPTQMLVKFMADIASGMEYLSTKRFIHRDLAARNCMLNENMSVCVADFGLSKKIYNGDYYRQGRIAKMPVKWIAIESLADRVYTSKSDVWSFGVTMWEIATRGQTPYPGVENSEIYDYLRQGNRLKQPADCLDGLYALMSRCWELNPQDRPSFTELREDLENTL
# Method: Detection method: Enzyme-linked immunosorbent assay (ELISA)
# Tested receptor tyrosine kinase: AXL
# The full-wavelength microplate reader for experiment reading was a product of Molecular Device, model: SpectraMax 190; the experiment water was distilled water produced by Sinopharm Group.
# Compound preparation: The compounds were centrifuged at 12,000 g for 5 min, and DMSO was added to prepare a 10^−2M stock solution, vortexed evenly and sonicated for 10 min for use, and stored at −40° C. During the test, the compound was diluted from the stock solution to 100 times the tested concentration with DMSO (the DMSO concentration in the system was 1%).
# 1. […] Discard the liquid from the well. The plate was washed and washed three times with T-PBS (0.1% Tween-20 in potassium-free PBS, 200 μL/well) for 5 minutes each time.
# 2. 49 μL of ATP solution diluted with reaction buffer (50 mM HEPES pH 7.4, 50 mM MgCl2, 0.5 mM MnCl2, 0.2 mM Na3VO4, 1 mM DTT) was added to each well, and […] of the tested compound was added to each well, and then 50 μL of AXL kinase domain recombinant protein diluted in reaction buffer was added to start the reaction. Two control wells without ATP were added in each experiment. (100 rpm) Reacted in 37° C. shaker for 1 hour. Discard the liquid from the well, and the plate was washed with T-PBS for three times.
# 3. […] Discard the liquid from the well, and the plate was washed with T-PBS for three times.
# 4. The horseradish peroxidase-labeled goat anti-mouse second antibody dilution (antibody diluted 1:2000 with BSA 5 mg/mL in T-PBS), 100 μL/well, and reacted in 37° C. shaker for 0.5 hours. Discard the liquid from the well, and the plate was washed with T-PBS for three times.
# 6. The reaction was quenched with 50 μL/well 2M […], and read at 490 nm using a tunable microplate reader VERSAmax.
# The IC50 values were obtained by four-parameter regression analysis using the software supplied with the microplate reader.
# [2] = target: receptor tyrosine kinase c-Met (Homo sapiens, UniProt P08581); assay: In vitro c-Met kinase inhibitory activity; type: biochemical; settings: two values per compound; for inhibition at 0.01 µM / inhibition at 0.1 µM / inhibition at 0.001 µM: read-out: c-Met Inhibitory rate (%)
# Text: Experimental Example 3: Study of In Vitro c-Met Kinase Inhibitory Activity
# Since the screening results of 369 kinase profiles of compound DC621044 has shown that the compound has a certain inhibitory activity on c-Met. We further screened some compounds for their inhibitory activity on c-Met kinase.
# Sequence of receptor tyrosine kinase c-Met (P08581 25-1390): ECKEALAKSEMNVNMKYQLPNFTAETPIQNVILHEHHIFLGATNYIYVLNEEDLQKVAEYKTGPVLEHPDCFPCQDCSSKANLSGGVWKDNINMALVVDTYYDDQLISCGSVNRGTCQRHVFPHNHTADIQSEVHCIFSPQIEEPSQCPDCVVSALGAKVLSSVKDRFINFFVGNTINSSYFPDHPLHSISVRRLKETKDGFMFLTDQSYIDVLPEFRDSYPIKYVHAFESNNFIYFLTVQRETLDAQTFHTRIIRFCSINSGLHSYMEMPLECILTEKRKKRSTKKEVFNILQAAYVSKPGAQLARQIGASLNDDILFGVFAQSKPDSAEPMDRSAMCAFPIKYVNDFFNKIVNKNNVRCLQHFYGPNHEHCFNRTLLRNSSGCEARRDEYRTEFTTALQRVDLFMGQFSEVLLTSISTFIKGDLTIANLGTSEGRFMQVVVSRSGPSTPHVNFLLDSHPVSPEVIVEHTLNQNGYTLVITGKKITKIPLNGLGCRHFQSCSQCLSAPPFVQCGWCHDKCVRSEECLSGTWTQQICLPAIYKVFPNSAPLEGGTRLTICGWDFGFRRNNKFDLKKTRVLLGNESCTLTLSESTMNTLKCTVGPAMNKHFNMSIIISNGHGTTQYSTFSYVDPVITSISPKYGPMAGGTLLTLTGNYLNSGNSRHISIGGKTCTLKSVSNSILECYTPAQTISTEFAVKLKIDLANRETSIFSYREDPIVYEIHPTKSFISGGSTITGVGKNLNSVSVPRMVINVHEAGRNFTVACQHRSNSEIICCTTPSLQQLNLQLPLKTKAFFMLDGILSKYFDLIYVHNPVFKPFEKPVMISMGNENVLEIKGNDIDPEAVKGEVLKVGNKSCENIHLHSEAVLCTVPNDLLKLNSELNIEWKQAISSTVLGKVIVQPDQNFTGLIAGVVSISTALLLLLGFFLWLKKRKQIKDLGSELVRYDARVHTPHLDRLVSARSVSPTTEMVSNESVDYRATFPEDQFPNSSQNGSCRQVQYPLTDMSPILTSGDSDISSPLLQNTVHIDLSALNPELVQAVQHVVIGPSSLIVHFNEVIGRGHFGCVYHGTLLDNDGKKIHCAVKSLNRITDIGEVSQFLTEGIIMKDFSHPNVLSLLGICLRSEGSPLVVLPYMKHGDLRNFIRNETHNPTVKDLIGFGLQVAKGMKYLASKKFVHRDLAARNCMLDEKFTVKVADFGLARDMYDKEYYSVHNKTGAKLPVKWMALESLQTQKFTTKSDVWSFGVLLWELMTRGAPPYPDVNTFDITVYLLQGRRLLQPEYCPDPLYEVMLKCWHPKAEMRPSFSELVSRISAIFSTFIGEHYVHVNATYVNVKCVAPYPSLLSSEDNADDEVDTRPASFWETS
Compound,inhibition at 0.01 µM [1],inhibition at 0.1 µM [1],inhibition at 1 µM [1],AXL activity (in words) [1],"c-Met Inhibitory rate (%) ([2]; 1 nM, 0.001 µM)","c-Met Inhibitory rate (%) ([2]; 10 nM, 0.01 µM)",inhibition at 0.01 µM ([2]; 10 nM),"c-Met Inhibitory rate (%) ([2]; 100 nM, 0.1 µM)",inhibition at 0.1 µM ([2]; 100 nM),inhibition at 0.001 µM [1],inhibition at 0.001 µM ([2]; 1 nM)
"COc1nc(OC)nc(Oc2ccc(NC(=O)c3c4n(n(-c5ccccc5)c3=O)CCCC4)cc2)n1 [DC621003, N-(4-((4,6-dimethoxy-1,3,5-triazine-2-yl)oxy)phenyl)-2-oxo-1-phenyl-1,2,4,5,6,7-hexahydro[1,5-a]pyridine-3-formamide, reference compound]",-15.5%,2.8%,-7.2%,almost no activity,,,,,,,
"Cc1nccc(Oc2ccc(NC(=O)c3c4n(n(-c5ccccc5)c3=O)CCCC4)cc2)n1 [DC621005, N-(4-((2-methylpyrimidine-4-yl)oxy)phenyl)-2-oxo-1-phenyl-1,2,4,5,6,7-hexahydro[1,5-a]pyridine-3-formamide, reference compound]",-14.6%,18.3%,-7.8%,almost no activity,,,,,,,
"O=C(Nc1ccc(Oc2ncnc3cc4c(cc23)OCCOCCOCCO4)c(F)c1)c1c2n(n(-c3ccccc3)c1=O)CCCC2 [DC621061, N-(3-fluoro-4-((7,8,10,11,13,14-hexahydro-[1,4,7,10]tetraoxacyclododecane [2,3-g]quinazolin-4-yl)oxy)phenyl)-2-oxo-1-phenyl-1,2,4,5,6,7-hexahydropyrazolo[1,5-a]pyridine-3-formamide]",66.7%,91.8%,,,35.7% and 61.1%,62.4%,51.1%,95.7%,94.7%,22.9%,
"O=C(Nc1ccc(Oc2ncnc3cc4c(cc23)OCCOCCOCCO4)c(Cl)c1)c1c2n(n(-c3ccccc3)c1=O)CCCC2 [DC621062, N-(3-chloro-4-((7,8,10,11,13,14-hexahydro-[1,4,7,10]tetraoxacyclododecane [2,3-g]quinazolin-4-yl)oxy)phenyl)-2-oxo-1-phenyl-1,2,4,5,6,7-hexahydropyrazolo[1,5-a]pyridine-3-formamide]",43%,70.6%,,,35.9% and 68.6%,78.1% and 98.9%,,100%,99.8%,6.3%,
"O=C(Nc1ccc(Oc2ncnc3cc4c(cc23)OCCOCCOCCO4)c(Cl)c1)c1c2n(n(-c3cc(F)ccc3F)c1=O)CCCC2 [DC621064, 1-(2,5-difluorophenyl)-N-(3-chloro-4-((7,8,10,11,13,14-hexahydro-[1,4,7,10]tetraoxacyclododecane [2,3-g]quinazolin-4-yl)oxy)phenyl)-2-oxo-1,2,4,5,6,7-hexahydropyrazolo[1,5-a]pyridine-3-formamide]",47.4%,83.4%,,,,,,,,30.8%,
"O=C(Nc1ccc(Oc2ncnc3cc4c(cc23)OCCOCCOCCO4)c(F)c1)c1c2n(n(-c3ccccc3F)c1=O)CCCC2 [DC621065, N-(3-fluoro-4-((7,8,10,11,13,14-hexahydro-[1,4,7,10]tetraoxacyclododecane [2,3-g]quinazolin-4-yl)oxy)phenyl)-1-(2-fluorophenyl)-2-oxo-1,2,4,5,6,7-hexahydropyrazolo[1,5-a]pyridine-3-formamide]",45.8%,95%,,,,,,,,29.6%,

# More lines, now with the values ahead:
inhibition at 0.01 µM [1],inhibition at 0.1 µM [1],inhibition at 1 µM [1],AXL activity (in words) [1],"c-Met Inhibitory rate (%) ([2]; 1 nM, 0.001 µM)","c-Met Inhibitory rate (%) ([2]; 10 nM, 0.01 µM)",inhibition at 0.01 µM ([2]; 10 nM),"c-Met Inhibitory rate (%) ([2]; 100 nM, 0.1 µM)",inhibition at 0.1 µM ([2]; 100 nM),inhibition at 0.001 µM [1],inhibition at 0.001 µM ([2]; 1 nM),Compound
55.1%,85.8%,,,46.0%,85.9%,71.2%,,100%,16.5%,34%,"O=C(Nc1ccc(Oc2ncnc3cc4c(cc23)OCCOCCOCCO4)c(Cl)c1)c1c2n(n(-c3ccc(F)cc3)c1=O)CCCC2 [DC621068, N-(3-chloro-4-((7,8,10,11,13,14-hexahydro-[1,4,7,10]tetraoxacyclododecane[2,3-g]quinazolin-4-yl)oxy)phenyl)-1-(4-fluorophenyl)-2-oxo-1,2,4,5,6,7-hexahydropyrazolo[1,5-a]pyridine-3-formamide]"
60.5%,91.1%,,,,,,,,2.4%,,"COCCOc1cc2ncnc(Oc3ccc(NC(=O)c4c5n(n(-c6ccccc6)c4=O)CCCC5)cc3Cl)c2cc1OCCOC [DC621070, N-(4-((6,7-bis(2-methoxyethoxy)quinazolin-4-yl)oxy)-3-chlorophenyl)-2-oxo-1-phenyl-1,2,4,5,6,7-hexahydropyrazolo[1,5-a]pyridine-3-formamide]"
52.1%,75.9%,,,34.3%,68.4%,67.6%,96.6%,95.8%,34.8%,24.1%,"COCCOc1cc2ncnc(Oc3ccc(NC(=O)c4c5n(n(-c6ccccc6)c4=O)CCCC5)cc3C(F)(F)F)c2cc1OCCOC [DC621072, N-(4-((6,7-bis(2-methoxyethoxy)quinazolin-4-yl)oxy)-3-trifluoromethylphenyl)-2-oxo-1-phenyl-1,2,4,5,6,7-hexahydropyrazolo[1,5-a]pyridine-3-formamide]"
76.4%,100%,,,,58.3%,68.8%,93.5%,97.1%,35.5%,,"COCCOc1cc2ncnc(Oc3ccc(NC(=O)c4c5n(n(-c6cc(F)ccc6F)c4=O)CCCC5)cc3Cl)c2cc1OCCOC [DC621080, 1-(2,5-difluorophenyl)-N-(4-((6,7-bis(2-methoxyethoxy)quinazolin-4-yl)oxy)-3-chlorophenyl)-2-oxo-1,2,4,5,6,7-hexahydropyrazolo[1,5-a]pyridine-3-formamide]"
34.9%,79.2%,,,,,,,,16.3%,,"COc1cc2ncnc(Oc3ccc(NC(=O)c4c5n(n(-c6cc(F)ccc6F)c4=O)CCCC5)cc3C(F)(F)F)c2cc1OC [DC621081, 1-(2,5-difluorophenyl)-N-(4-((6,7-dimethoxyquinazoline-4-yl)oxy)-3-trifluoromethylphenyl)-2-oxo-1,2,4,5,6,7-hexahydropyrazolo[1,5-a]pyridine-3-formamide]"
62.9%,92.7%,,,,,,,,21.1%,,"COCCOc1cc2ncnc(Oc3ccc(NC(=O)c4c5n(n(-c6ccccc6F)c4=O)CCCC5)cc3Cl)c2cc1OCCOC [DC621090, N-(4-((6,7-bis(2-methoxyethoxy)quinazolin-4-yl)oxy)-3-chlorophenyl)-1-(2-fluorophenyl)-2-oxo-1,2,4,5,6,7-hexahydropyrazolo[1,5-a]pyridine-3-formamide]"
61%,78%,,,16.8%,53.1%,71.6%,89.8%,94.2%,4.8%,25.3%,"COCCOc1cc2ncnc(Oc3ccc(NC(=O)c4c5n(n(-c6ccccc6F)c4=O)CCCC5)cc3C(F)(F)F)c2cc1OCCOC [DC621092, N-(4-((6,7-bis(2-methoxyethoxy)quinazolin-4-yl)oxy)-3-trifluoromethylphenyl)-1-(2-fluorophenyl)-2-oxo-1,2,4,5,6,7-hexahydropyrazolo[1,5-a]pyridine-3-formamide]"
